pIC50: −log10 of the molar value.
Molecular target: JAK1 (recombinant purified GST-tagged catalytic domain) (Homo sapiens (Human), UniProt P23458)
Assay: biochemical
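Also: biochemical assay with HTRF read-out.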

Chain of JAK1 (recombinant purified GST-tagged catalytic domain) (P23458 875-1153): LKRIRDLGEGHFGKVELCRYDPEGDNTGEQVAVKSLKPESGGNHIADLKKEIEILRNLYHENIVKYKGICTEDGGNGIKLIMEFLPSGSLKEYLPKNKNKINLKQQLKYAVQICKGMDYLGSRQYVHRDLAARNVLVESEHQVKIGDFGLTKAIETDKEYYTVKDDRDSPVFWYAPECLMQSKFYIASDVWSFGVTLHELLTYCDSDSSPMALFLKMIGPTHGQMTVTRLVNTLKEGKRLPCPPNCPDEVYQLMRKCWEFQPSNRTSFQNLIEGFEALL

pIC50 | Structure (SMILES)
9.00 | CN([C@H]1CCC(n2cc(C(N)=O)c(Nc3ccc(Cl)cc3)n2)[C@@H](C#N)C1)C(C)(C)C1CC1 (single isomer, unassigned) [Example 28-229, 3-[(4-chlorophenyl)amino]-1-{(1S,2S,4S or 1R,2R,4R)-2-cyano-4-[(1-cyclopropyl-1-methylethyl)(methyl)amino]cyclo-hexyl}-1H-pyrazole-4-carboxamide]
8.52 | N#C[C@H]1CCCC[C@@H]1n1cc(C(N)=O)c(Nc2ccc(F)nc2)n1 (single isomer, unassigned) [Example 17-19, 1-[(1S,2S or 1R,2R)-2-cyanocyclohexyl]-3-[(6-fluoropyridin-3-yl)amino]-1H-pyrazole-4-carboxamide]
8.05 | N#C[C@@H]1C[C@H](C(=O)N2CC(F)C2)CC[C@H]1n1cc(C(N)=O)c(Nc2ccc(Cl)cc2)n1 (single isomer, unassigned) [Example 35-33, 3-[(4-chlorophenyl)amino]-1-{(1R,2R,4R or 1S,2S,4S)-2-cyano-4-[(3-fluoroazetidin-1-yl)carbonyl]cyclohexyl}-1H-pyrazole-4-carboxamide]
7.96 | N#C[C@@H]1CCCC[C@H]1n1cc(C(N)=O)c(Nc2ccc(F)nc2)n1 (single isomer, unassigned) [Example 17-23, 1-[(1R,2R or 1S,2S)-2-cyanocyclohexyl]-3-[(6-fluoropyridin-3-yl)amino]-1H-pyrazole-4-carboxamide]
7.22 | CC(C)(C)NC(=O)c1cncc(Nc2nn([C@H]3CCCC[C@@H]3C#N)cc2C(N)=O)c1 (single isomer, unassigned) [Example 17-71, N-tert-butyl-5-({4-carbamoyl-1-[(1R,2R or 1S,2S)-2-cyanocyclohexyl]-1H-pyrazol-3-yl}amino)pyridine-3-carboxamide]
8.15 | N#C[C@H]1CCCC[C@@H]1n1cc(C(N)=O)c(Nc2cc(F)cc(Cl)c2)n1 (single isomer, unassigned) [Example 17-51, 3-[(3-chloro-5-fluorophenyl)amino]-1-[(1S,2S or 1R,2R)-2-cyanocyclohexyl]-1H-pyrazole-4-carboxamide]
8.22 | CC(C)NC(=O)O[C@H]1CCC(n2cc(C(N)=O)c(Nc3ccc(F)cc3)n2)[C@@H](C#N)C1 (mixture of isomers) [Example 34-8, (1S,3S,4S and 1R,3R,4R)-4-{4-carbamoyl-3-[(4-fluorophenyl)amino]-1H-pyrazol-1-yl}-3-cyanocyclohexyl propan-2-ylcarbamate]
9.30 | N#C[C@H]1C[C@@H](N2CCC2)CC[C@@H]1n1cc(C(N)=O)c(Nc2ccc(OC(F)F)cc2)n1 (single isomer, unassigned) [Example 28-118, 1-[(1S,2S,4S or 1R,2R,4R)-4-azetidin-1-yl-2-cyanocyclohexyl]-3-{[4-(difluoromethoxy)phenyl]amino}-1H-pyrazole-4-carboxamide]
9.40 | CN(C)[C@H]1CC[C@H](n2cc(C(N)=O)c(Nc3ccc(OC(F)F)cc3)n2)[C@@H](C#N)C1 (single isomer, unassigned) [Example 28-104, 1-[(1S,2S,4S or 1R,2R,4R)-2-cyano-4-(dimethylamino)cyclohexyl]-3-{[4-(difluoromethoxy)phenyl]amino}-1H-pyrazole-4-carboxamide]
9.00 | N#Cc1ccc(Nc2nn([C@H]3CC[C@H](NCC(F)F)C[C@@H]3C#N)cc2C(N)=O)cc1 (single isomer, unassigned) [Example 28-116, 1-{(1S,2S,4S or 1R,2R,4R)-2-cyano-4-[(2,2-difluoroethyl)amino]cyclohexyl}-3-[(4-cyanophenyl)amino]-1H-pyrazole-4-carboxamide]
7.42 | CC1(CNC(=O)[C@@H]2CC[C@@H](n3cc(C(N)=O)c(Nc4ccc(Cl)cc4)n3)[C@H](C#N)C2)COC1 (single isomer, unassigned) [Example 35-29, 3-[(4-chlorophenyl)amino]-1-[(1R,2R,4R or 1S,2S,4S)-2-cyano-4-{[(3-methyloxetan-3-yl)methyl]carbamoyl}cyclohexyl]-1H-pyrazole-4-carboxamide]
8.70 | C[C@](O)(c1ccc(Nc2nn([C@H]3CCCC[C@@H]3C#N)cc2C(N)=O)cn1)C(F)(F)F (single isomer, unassigned) [Example 17-34, 1-[(1S,2S or 1R,2R)-2-cyanocyclohexyl]-3-({6-[(1S or 1R)-2,2,2-trifluoro-1-hydroxy-1-methylethyl]pyridin-3-yl}amino)-1H-pyrazole-4-carboxamide]
8.70 | N#C[C@H]1CCCC[C@@H]1n1cc(C(N)=O)c(Nc2ccc(C(F)(F)F)cc2)n1 (single isomer, unassigned) [Example 17-105, 1-[(1S,2S or 1R,2R)-2-cyanocyclohexyl]-3-{[4-(trifluoromethyl)phenyl]amino}-1H-pyrazole-4-carboxamide]
8.40 | N#C[C@H]1C[C@@H](NC2CCOCC2)CCC1n1cc(C(N)=O)c(Nc2ccc(Cl)cc2)n1 (single isomer, unassigned) [Example 28-218, 3-[(4-chlorophenyl)amino]-1-[(1S,2S,4S or 1R,2R,4R)-2-cyano-4-(tetrahydro-2H-pyran-4-ylamino)cyclohexyl]-1H-pyrazole-4-carboxamide]
8.52 | N#C[C@H]1C[C@@H](C(=O)N2CCC(F)(F)C2)CC[C@@H]1n1cc(C(N)=O)c(Nc2ccc(Cl)cc2)n1 (single isomer, unassigned) [Example 35-28, 3-[(4-chlorophenyl)amino]-1-{(1S,2S,4S or 1R,2R,4R)-2-cyano-4-[(3,3-difluoropyrrolidin-1-yl)carbonyl]cyclohexyl}-1H-pyrazole-4-carboxamide]
9.00 | CC(C)(CF)c1ccc(Nc2nn([C@H]3CC[C@H](O)C[C@@H]3C#N)cc2C(N)=O)cc1 (single isomer, unassigned) [Example 33-21, 1-[(1S,2S,4S or 1R,2R,4R)-2-cyano-4-hydroxycyclohexyl]-3-{[4-(2-fluoro-1,1-dimethylethyl)phenyl]amino}-1H-pyrazole-4-carboxamide]
9.52 | CC(=O)c1ccc(Nc2nn([C@H]3CCCC[C@@H]3C#N)cc2C(N)=O)cc1 (single isomer, unassigned) [Example 17-27, 3-[(4-acetylphenyl)amino]-1-[(1S,2S or 1R,2R)-2-cyanocyclohexyl]-1H-pyrazole-4-carboxamide]
8.70 | CC1(C)CN([C@@H]2CC[C@H](n3cc(C(N)=O)c(Nc4ccnc(F)c4)n3)[C@@H](C#N)C2)C1 (single isomer, unassigned) [Example 28-142, 1-[(1S,2S,4R or 1R,2R,4S)-2-cyano-4-(3,3-dimethylazetidin-1-yl)cyclohexyl]-3-[(2-fluoropyridin-4-yl)amino]-1H-pyrazole-4-carboxamide]
8.22 | N#C[C@H]1C[C@@H](N2CCC2)CC[C@@H]1n1cc(C(N)=O)c(Nc2ccc(OC(F)F)cc2)n1 (single isomer, unassigned) [Example 28-103, 1-[(1S,2S,4S or 1R,2R,4R)-4-azetidin-1-yl-2-cyanocyclohexyl]-3-{[4-(difluoromethoxy)phenyl]amino}-1H-pyrazole-4-carboxamide]
9.46 | CC(C)N[C@@H]1CC[C@H](n2cc(C(N)=O)c(Nc3ccc(S(=O)(=O)C(F)(F)F)cc3)n2)[C@@H](C#N)C1 (single isomer, unassigned) [Example 28-175, 1-{(1S,2S,4R or 1R,2R,4S)-2-cyano-4-[(1-methylethyl)amino]cyclohexyl}-3-({4-[(trifluoro-methyl)sulfonyl]phenyl}amino)-1H-pyrazole-4-carboxamide]
8.70 | N#C[C@H]1C[C@@H](O)CC[C@@H]1n1cc(C(N)=O)c(Nc2ccc(Cl)c(F)c2)n1 (single isomer, unassigned) [Example 33-3, 3-[(4-chloro-3-fluorophenyl)amino]-1-[(1S,2S,4S or 1R,2R,4R)-2-cyano-4-hydroxycyclohexyl]-1H-pyrazole-4-carboxamide]
9.31 | N#C[C@H]1CCCCC1n1cc(C(N)=O)c(Nc2ccc(S(=O)(=O)CC(F)(F)F)cc2)n1 (mixture of isomers) [Example 17-12, 1-[(1S,2S and 1R,2R)-2-cyanocyclohexyl]-3-({4-[(2,2,2-trifluoroethyl)sulfonyl]phenyl}amino)-1H-pyrazole-4-carboxamide]
9.35 | COC(C)(C)c1ccc(Nc2nn([C@H]3CC[C@@H](O)C[C@@H]3C#N)cc2C(N)=O)cc1 (single isomer, unassigned) [Example 25-11, 1-[(1S,2S,4R or 1R,2R,4S)-2-cyano-4-hydroxycyclohexyl]-3-{[4-(1-methoxy-1-methylethyl)phenyl]amino}-1H-pyrazole-4-carboxamide]
8.70 | CN(C)[C@H]1CC[C@H](n2cc(C(N)=O)c(Nc3ccc(F)cc3)n2)[C@@H](C#N)C1 (single isomer, unassigned) [Example 28-94, 1-[(1S,2S,4S or 1R,2R,4S)-2-cyano-4-(dimethylamino)cyclohexyl]-3-[(4-fluorophenyl)amino]-1H-pyrazole-4-carboxamide]
9.00 | N#C[C@H]1C[C@](O)(C2CC2)CC[C@@H]1n1cc(C(N)=O)c(Nc2ccc(Cl)cc2)n1 (single isomer, unassigned) [Example 32-12, 3-[(4-chlorophenyl)aminol-1-[(1S,2S,4S or 1R,2R,4R)-2-cyano-4-cyclopropyl-4-hydroxycyclohexyl]-1H-pyrazole-4-carboxamide]
9.89 | N#C[C@H]1C[C@@H](N2CC(O)C2)CC[C@@H]1n1cc(C(N)=O)c(Nc2ccc(S(=O)(=O)C(F)(F)F)cc2)n1 (single isomer, unassigned) [Example 28-151, 1-[(1S,2S,4S or 1R,2R,4R)-2-cyano-4-(3-hydroxyazetidin-1-yl)cyclohexyl]-3-({4-[(trifluoro-methyl)sulfonyl]phenyl}amino)-1H-pyrazole-4-carboxamide]
8.70 | CN(CCC(F)(F)F)[C@H]1CC[C@H](n2cc(C(N)=O)c(Nc3ccc(S(=O)(=O)C(F)(F)F)cc3)n2)[C@@H](C#N)C1 (single isomer, unassigned) [Example 28-171, 1-{(1S,2S,4S or 1R,2R,4R)-2-cyano-4-[methyl(3,3,3-tri-fluoropropyl)amino]cyclohexyl}-3-({4-[(trifluoromethyl)sulfonyl]phen-yl}amino)-1H-pyrazole-4-carboxamide]

Source: patent US8962608B2, “Cycloalkylnitrile pyrazole carboxamides as janus kinase inhibitors” (Merck Sharp & Dohme Corp., priority 2011, dated 2015)
